# Reference: patent US12059399B2, “Methods for alleviating kidney disease and fibrosis of organ” (Getwing Biotechnology Medical Co., Ltd, priority 2021, dated 2024)
# Legend:
# [1] = test system: fibrous proteins (α-SMA, collagen I fibers, and vimentin) in kidney tissues; assay: Protein expression analysis (Western blot) of renal tissues from the left obstructed kidney after UUO surgery; format: in vivo, Male C57BL/6J mice; settings: 7 days, vs PCG
# Experimental: (§1) The UUO surgery was performed in accordance with the Guidelines for Care and Use of Laboratory Animals. Specifically, during the UUO surgery, the respective mouse was anesthetized through intraperitoneal injection of pentobarbital (Manufacturer: Merck KGaA, Darmstadt, Germany; Catalogue no.: P3761) at a dose of about 60 mg per kg of body weight. The skin tissue and the subcutaneous muscle layer at the left side of the abdominal midline were incised, so that the left kidney was exposed and the left ureter was identified and dissociated. The left ureter was dissected out with scissors and ligated with silk surgical sutures (size: 4-0) at an upstream location approximately 1 cm from the renal hilum and at a downstream location approximately 1 cm from the renal hilum. After confirmation that no bleeding and no urine leakage occurred, the incised subcutaneous muscle layer and skin tissue were stitched.
# (§2) The male C57BL/6J mice described in section 2 of the “General Experimental Materials” were randomly divided into 5 groups, namely, a sham-operated group (SOG), a pathological control groups (PCG), and three experimental groups (i.e., experimental group 1 (EG1), experimental group 2 (EG2), and experimental group 3 (EG3)) (n=3 per group). After being raised in the animal room for one week, the mice in the PCG and the EG1 to EG3 were subjected to the UUO surgery as described in section 1 of the “General Experimental Procedures”. The mice in the SOG were subjected to a similar surgical procedure, except that the ureter of the mice in the SOG was not obstructed, i.e., the left ureter was not dissected out and ligated. After surgery, during the entire experimental process which lasted 7 days, all the mice were placed in iron cages.
# (§3) The mice of the EG1 to EG3 were respectively administered, via oral gavage, with the ferrous amino acid chelate described in section 1 of the “General Experimental Materials” at a dose of 5 mg/kg, 125 mg/kg and 250 mg/kg of body weight once daily (in the morning) for 7 days. At the end of Day 7, a blood sample and a urine sample, each in a volume of 0.2 mL, were obtained from each mouse in the EG1 to EG3. The mice of the SOG and the mice of the PCG received no treatment (i.e., 0 mg/kg of ferrous amino acid chelate), and at the end of Day 7, a blood sample and a urine sample, each in a volume of 0.2 mL, were obtained from each mouse.
# The renal tissues were extracted from the left obstructed kidney of a selected mouse in each group, and then lysed with NETN lysis buffer (20 mM Tris, 150 mM NaCl, 1 mM EDTA, and 0.5% NP-40) on ice. The resultant cell lysates were centrifuged, and the supernatants were collected to serve as total protein samples.
# Protein samples in equal amounts (i.e., 20 μg) as determined by Bradford assay were resolved in 8% or 10% sodium dodecyl sulfate-polyacrylamide (SDS-PAGE) gels, and then subjected to immunoblot analysis. To be specific, the separated proteins were transferred to Immobilon®-P polyvinylidene difluoride (PVDF) membranes (Manufacturer: Merck Millipore, NJ, USA). The blotted PVDF membranes thus obtained were blocked with Tris-buffered saline (TBS) and 0.1% (vol/vol) polysorbate 20 (also known as Tween 20) containing 5% non-fat dry milk for 1 hour at room temperature, followed by washing with TBST 3 times, each time for […], and then probing with the indicated primary antibodies overnight. The probed membranes were washed with a TBST buffer (a mixture of TBS and polysorbate 20) 3 times, each time for 5 minutes, and were then incubated with secondary antibodies, such as a horseradish peroxidase (HRP)-conjugated anti-mouse antibody or an HRP-conjugated anti-rabbit antibody for 60 minutes at room temperature. HRP was detected using ECL detection reagents (Merck Millipore, Darmstadt, Germany), and band intensity was determined by ImageQuant™ LAS-4000 luminescence image analyzer (GE Healthcare).
# Anti-glyceraldehyde 3-phosphate dehydrogenase (GAPDH) was used as a loading control.
# [2] = test system: HK-2 cells; assay: Cytotoxicity analysis (MTT) in HK-2 cells; format: cell-based, Human; settings: EG1 to EG6: 50, 100, 250, 500, 750 and 1000 μg/mL; 24 hours; vs control group
# Experimental: (§4) Human kidney proximal tubular epithelial cell line HK-2 (from normal adult human renal cortex) used in the following experiments was obtained from, the Bioresource Collection and Research Center (BCRC) of the Food industry Research and Development Institute (FIRDI) (No. 331, Shih-Pin Rd., Hsinchu City 300, Taiwan).
# The HK-2 cells were incubated in 10-cm Petri dishes, each of which contained Dulbecco's modified Eagle's medium/Ham's Nutrient Mixture F-12 (DMEM/F12) (Manufacturer: Thermo Fisher Scientific, WA, USA; Catalogue no.: 12500062) supplemented with HyClone™ 1% (v/v) penicillin-steptomycin (Manufacturer: Cytiva; Catalogue no.: SC30010). […]
# First, the HK-2 cells described in section 3 of the General Experimental Materials were seeded at a concentration of 2×10^4 cells per well into wells of 6-well culture plates each containing DMEM/F-12 supplemented with 1% (v/v) penicillin-steptomycin, and then were divided into 7 groups, namely, a control group (CG), and six experimental groups (i.e., experimental groups 1 to 6 (EG1 to EG6)), followed by cultivation in an incubator with culture conditions set at 37° C. and 5% CO2 for 24 hours. […] Subsequently, the medium in each group was collected and subjected to light absorbance measurement at a wavelength of 570 nm (OD570) using a spectrophotometer. […]
# [3] = test system: HK-2 cells; assay: Migration of HK-2 cells into the cell-free wound area, induced by TGF-β1 (EMT); format: cell-based, Human; settings: 100 μg/mL with 50 ng/mL TGF-β1; 24 hours; vs TGF-β1 alone (comparative group 1)
# Experimental: as §4
# The HK-2 cells were incubated in 10-cm Petri dishes, each of which contained Dulbecco's modified Eagle's medium/Ham's Nutrient Mixture F-12 (DMEM/F12) (Manufacturer: Thermo Fisher Scientific, WA, USA; Catalogue no.: 12500062) supplemented with HyClone™ 1% (v/v) penicillin-steptomycin (Manufacturer: Cytiva; Catalogue no.: SC30010). Subsequently, cultivation was conducted in an incubator with culture conditions set at 37° C. and 5% CO2. Medium change was performed every 2 days. […]
# First, the HK-2 cells described in section 3 of the General Experimental Materials were seeded at a concentration of 4×10^4 cells per well into wells of 6-well culture plates each containing DMEM supplemented with 1% (v/v) penicillin-steptomycin, and then were divided into 4 groups, namely, a control group, a comparative group 1, a comparative group 2, and an experimental group, followed by cultivation until reaching 90% of confluence. […] Cell migration was assessed at the 0 hour and 24th hour using an inverted optical microscope.
# [4] = test system: mice subjected to UUO surgery; assay: Biochemical analysis of blood and urine samples of mice 7 days after unilateral ureter obstruction (UUO) surgery; format: in vivo, Male C57BL/6J mice
# Experimental: Male C57BL/6J mice (having a weight of about 25 g) purchased from the National Laboratory Animal Center (Taipei, Taiwan) were kept in an animal room under the following laboratory conditions: a temperature of about 24° C. and a 12-hour light/12-hour dark cycle. Diets and water were provided ad libitum for all of the experimental animals.
# as §1, §2, §3
# The blood sample of the respective mouse was subjected to measurements of alanine transaminase (ALT), aspartate transaminase (AST), blood urea nitrogen (BUN) and creatinine levels for evaluation of kidney health. The urine sample of the respective mouse was subjected to quantification of urea nitrogen and creatinine levels for evaluation of kidney health. For each of the aforesaid parameters, the differences between each group were analyzed according to the procedures as described in the section 2 of the “General Experimental Procedures”.
# [5] = test system: left obstructed kidney of mice subjected to UUO surgery; assay: Histological analysis of renal tissues from the left obstructed kidney after UUO surgery (H&E, Masson's Trichrome, α-SMA and vimentin staining); format: in vivo, Male C57BL/6J mice
# Experimental: as §1, §2, §3
# The renal tissues were extracted from the left obstructed kidney of a selected mouse in each group. Fixation was conducted using 10% formalin, and dehydration was conducted using a series of graded alcohols (lower to higher concentrations) and xylene, followed by embedding in paraffin. A tissue section of […] was obtained and placed on a slide, followed by heating in an oven at […] overnight for melting the paraffin. Xylene was used to remove the melted paraffin, and rehydration was conducted with graded alcohols (higher to lower concentrations). Endogenous peroxidase was removed using 1% H2O2, followed by washing with a phosphate-buffered saline (PBS) buffer, so as to increase the permeability. After incubating the tissue section with fetal bovine serum (FBS) to prevent binding of some non-specific antigens, water was removed by suction.
# For staining of α-smooth muscle actin (SMA), a primary antibody against α-smooth muscle actin (SMA)(α-SMA) (Manufacturer: Abcam PLC; Catalogue no.: ab5694) with a dilution ratio of 1:400 was added to the tissue section at room temperature, and the reaction was allowed to proceed for 2 hours at room temperature. Thereafter, washing was conducted twice with PBS to remove unbound primary antibodies. A Polymer-HRP secondary antibody (Manufacturer: Golden Bridge International, Inc., USA) was added. One hour later after the reaction, washing was conducted twice with PBS. […]
# [6] = EG1 and EG2: 5 and 125 mg/kg oral
# [7] = EG1 to EG3: 5, 125 and 250 mg/kg oral gavage once daily for 7 days, between SOG, PCG and EG1 to EG3
# [8] = 125 and 250 mg/kg (EG2, EG3) compared with 5 mg/kg (EG1)
# [9] = EG1 to EG3: 5, 125 and 250 mg/kg oral, 7 days, vs PCG
substance,measurement,setting,value
ferrous glycinate chelate [ferrous amino acid chelate],expression of collagen I (Western blot),[1]; [6],no significant difference
same,expression of α-SMA (Western blot),[1]; [6],no significant difference
same,expression level of vimentin (Western blot),[1]; EG2 and EG3: 125 and 250 mg/kg oral,significant reduction in expression level
same,expression of collagen I (Western blot),[1]; EG3: 250 mg/kg oral,significantly reduced
same,expression of α-SMA (Western blot),[1]; EG3: 250 mg/kg oral,significantly reduced
same,expression level of vimentin (Western blot),"[1]; from EG1 to EG3: 5, 125, 250 mg/kg oral",gradually reduced from EG1 to EG3
same,"viability of the HK-2 cells (cell viability rate, MTT)",[2],not significantly affected
same,migration of HK-2 cells into the cell-free wound area,[3],decreased capability to migrate into the cell-free wound area
same,blood urea nitrogen level,"[4]; EG1 to EG3: 5, 125 and 250 mg/kg oral gavage once daily for 7 days, UUO mice, vs PCG",significantly reduced compared to that in the PCG
same,urine urea nitrogen level,"[4]; EG1 to EG3: 5, 125 and 250 mg/kg oral gavage once daily for 7 days, among PCG, EG1, EG2 and EG3",no significant difference
same,ALT level in the blood sample,[4]; [7],no significant difference
same,AST level in the blood sample,[4]; [7],no significant difference
same,creatinine level in the blood sample,[4]; [7],no significant difference
same,urine creatinine level,"[4]; EG2 and EG3: 125 and 250 mg/kg oral gavage once daily for 7 days, UUO mice, vs PCG",significantly reduced compared to that in the PCG
same,degree of reduction of interstitial deposition of collagen fibers and muscle fibers,[5]; [8],greater in EG2 and EG3 compared with those in EG1
same,degree of reduction of tubular dilation,[5]; [8],greater in EG2 and EG3 compared with those in EG1
same,amount of actin fibers (α-SMA staining),[5]; [9],significantly reduced compared with those in the PCG
same,interstitial deposition of collagen fibers and muscle fibers (Masson's Trichrome staining),[5]; [9],significantly reduced compared with those in the PCG
same,number of cells undergoing fibrosis (vimentin staining),[5]; [9],significantly reduced compared with those in the PCG
same,tubular dilation (H & E staining),[5]; [9],significantly reduced compared with those in the PCG
